In PMC4774911, “Biochemical Screening of Five Protein Kinases from Plasmodium falciparum against 14,000 Cell-Active Compounds” (PLoS ONE, 2016):
Values joined by “and” are separate entries in the source; they are usually repeats but may differ in a detail not shown here. Equal entries are not always repeated.

Legend:
Test in all cases: biochemical
Parameters in all cases: endogenous in cells; host or cells: K562 cell extract; species or system K562 (extract); replicate k of n = 2 (each experiment ID is one independent experiment; two experiment IDs per compound)
Conditions in all cases: read-out: KDapp
[1] = target: PRKCA (Homo sapiens, UniProt P17252)
[2] = target: T1, TEC (Homo sapiens, UniProt P42680)
T1 sequence (P42680 1-631): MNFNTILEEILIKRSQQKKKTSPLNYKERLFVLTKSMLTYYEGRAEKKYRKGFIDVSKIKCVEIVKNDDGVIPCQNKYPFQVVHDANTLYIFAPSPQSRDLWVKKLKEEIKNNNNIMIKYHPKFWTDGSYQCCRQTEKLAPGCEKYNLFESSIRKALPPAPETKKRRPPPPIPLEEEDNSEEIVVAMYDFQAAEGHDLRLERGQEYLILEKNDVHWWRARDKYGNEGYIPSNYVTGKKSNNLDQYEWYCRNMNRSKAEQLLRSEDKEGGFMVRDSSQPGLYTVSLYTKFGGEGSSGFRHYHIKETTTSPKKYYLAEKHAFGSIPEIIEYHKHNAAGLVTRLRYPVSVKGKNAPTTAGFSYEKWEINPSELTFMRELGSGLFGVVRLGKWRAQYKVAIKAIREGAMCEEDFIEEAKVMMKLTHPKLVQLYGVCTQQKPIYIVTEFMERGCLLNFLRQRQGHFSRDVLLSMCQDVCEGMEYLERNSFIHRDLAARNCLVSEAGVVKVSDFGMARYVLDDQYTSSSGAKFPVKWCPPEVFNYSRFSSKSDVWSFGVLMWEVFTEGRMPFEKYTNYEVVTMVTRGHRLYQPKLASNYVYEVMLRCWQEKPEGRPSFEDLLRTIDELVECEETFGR

[3] = target: RPS6KA5 (Homo sapiens, UniProt O75582)
[4] = target: T2, STK4 (Homo sapiens, UniProt Q13043)
T2 sequence (Q13043 1-487): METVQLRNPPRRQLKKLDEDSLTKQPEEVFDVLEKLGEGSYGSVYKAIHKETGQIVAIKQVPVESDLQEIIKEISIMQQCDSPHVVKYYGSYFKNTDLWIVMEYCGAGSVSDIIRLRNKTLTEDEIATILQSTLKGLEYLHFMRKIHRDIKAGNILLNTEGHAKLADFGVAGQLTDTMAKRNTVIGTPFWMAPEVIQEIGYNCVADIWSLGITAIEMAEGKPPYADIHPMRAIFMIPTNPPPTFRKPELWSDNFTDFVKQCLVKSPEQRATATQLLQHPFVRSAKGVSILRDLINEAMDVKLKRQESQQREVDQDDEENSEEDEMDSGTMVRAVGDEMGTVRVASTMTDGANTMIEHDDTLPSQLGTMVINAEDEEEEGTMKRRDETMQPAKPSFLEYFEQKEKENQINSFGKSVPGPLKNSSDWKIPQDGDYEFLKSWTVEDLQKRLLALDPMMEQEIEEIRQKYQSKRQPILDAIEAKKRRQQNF

[5] = target: T3, ACVR1 (Homo sapiens, UniProt Q04771)
T3 sequence (Q04771 1-509): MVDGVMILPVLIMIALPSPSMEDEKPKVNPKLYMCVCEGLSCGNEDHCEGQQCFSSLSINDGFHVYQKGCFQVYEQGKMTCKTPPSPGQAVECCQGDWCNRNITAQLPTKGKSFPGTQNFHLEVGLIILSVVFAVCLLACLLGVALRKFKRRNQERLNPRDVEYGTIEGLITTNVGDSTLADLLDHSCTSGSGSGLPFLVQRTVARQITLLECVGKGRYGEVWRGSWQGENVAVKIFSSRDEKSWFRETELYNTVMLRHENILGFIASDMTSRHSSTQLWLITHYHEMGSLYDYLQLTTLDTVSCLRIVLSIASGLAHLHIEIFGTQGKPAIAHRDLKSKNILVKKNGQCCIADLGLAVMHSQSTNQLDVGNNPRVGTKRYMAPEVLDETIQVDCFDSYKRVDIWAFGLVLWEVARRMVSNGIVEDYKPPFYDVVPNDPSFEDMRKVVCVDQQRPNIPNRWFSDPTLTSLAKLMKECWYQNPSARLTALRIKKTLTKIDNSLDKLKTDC

[6] = target: CDK10 (Homo sapiens, UniProt Q15131)
Sequence of CDK10 (Q15131 whole entry): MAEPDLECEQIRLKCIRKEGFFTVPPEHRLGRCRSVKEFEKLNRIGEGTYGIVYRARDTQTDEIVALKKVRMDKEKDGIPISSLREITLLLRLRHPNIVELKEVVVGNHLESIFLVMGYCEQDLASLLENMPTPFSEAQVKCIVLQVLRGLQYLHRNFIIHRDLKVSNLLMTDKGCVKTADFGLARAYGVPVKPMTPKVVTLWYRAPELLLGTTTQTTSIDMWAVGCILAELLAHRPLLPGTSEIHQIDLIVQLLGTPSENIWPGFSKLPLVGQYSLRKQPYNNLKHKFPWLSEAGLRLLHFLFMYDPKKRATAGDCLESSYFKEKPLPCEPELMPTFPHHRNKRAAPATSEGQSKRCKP

Sequence of RPS6KA5 (O75582 whole entry): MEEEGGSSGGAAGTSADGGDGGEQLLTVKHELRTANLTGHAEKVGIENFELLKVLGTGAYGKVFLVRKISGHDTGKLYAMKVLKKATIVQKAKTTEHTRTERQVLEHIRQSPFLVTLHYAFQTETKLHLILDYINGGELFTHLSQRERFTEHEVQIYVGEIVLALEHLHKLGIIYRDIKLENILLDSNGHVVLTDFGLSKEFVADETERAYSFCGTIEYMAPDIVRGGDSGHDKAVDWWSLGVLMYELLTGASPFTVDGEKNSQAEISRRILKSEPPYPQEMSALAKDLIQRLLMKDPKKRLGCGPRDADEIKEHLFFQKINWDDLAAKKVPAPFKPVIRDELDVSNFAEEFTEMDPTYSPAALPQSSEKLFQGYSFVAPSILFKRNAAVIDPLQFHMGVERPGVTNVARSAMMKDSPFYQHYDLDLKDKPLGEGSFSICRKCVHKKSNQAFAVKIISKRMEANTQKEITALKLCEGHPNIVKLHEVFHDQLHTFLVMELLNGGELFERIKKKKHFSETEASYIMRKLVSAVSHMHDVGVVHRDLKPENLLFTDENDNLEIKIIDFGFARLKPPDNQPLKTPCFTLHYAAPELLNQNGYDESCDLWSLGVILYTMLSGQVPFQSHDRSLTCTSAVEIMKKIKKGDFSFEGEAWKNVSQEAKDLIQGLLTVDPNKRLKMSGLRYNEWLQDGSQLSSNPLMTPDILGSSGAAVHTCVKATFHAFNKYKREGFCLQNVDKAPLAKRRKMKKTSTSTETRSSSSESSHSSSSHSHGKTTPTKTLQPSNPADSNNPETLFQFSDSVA

SMILES | Kd [1] | Kd [2] | Kd [3] | Kd [4] | Kd [5] | Kd [6]
CN1CCN(c2ccc(Nc3ncc(C#N)c(Nc4ccccc4C(N)=O)n3)cc2)CC1.Cl [TCMDC-134116] | 393 nM | 137 nM and 146 nM | 393 nM and 590 nM | 121 nM and 140 nM | 2200 nM | –
CN(C)CC(O)COc1ccc(Nc2ncc([N+](=O)[O-])c(Nc3ccccc3O)n2)cc1.O=C(O)C(F)(F)F (stereo not drawn) [TCMDC-141399] | – | – | – | – | – | 630 nM
